test system: RD cells; test: Cytotoxicity, neutral red method, RD cells; details: RD cells, neutral red method

Row | SMILES | CC50 [µM]
1 | CCN(CC)CCNC(=O)c1cc(OC)nc2ccccc12 [Compound 5a, N-[2-(diethylamino)ethyl]-2-methoxyquinoline-4-carboxamide] | > 250
2 | CCOc1cc(C(=O)NCCN(CC)CC)c2ccccc2n1 [Compound 5b, N-[2-(diethylamino)ethyl]-2-ethoxyquinoline-4-carboxamide] | 165 ± 57.6
3 | CCN(CC)CCNC(=O)c1cc(OCC(F)(F)F)nc2ccccc12 [Compound 5c, N-[2-(diethylamino)ethyl]-2-(2,2,2-trifluoroethoxy)quinoline-4-carboxamide] | 33.1 ± 1.8
4 | CCCOc1cc(C(=O)NCCN(CC)CC)c2ccccc2n1 [Compound 5d, N-[2-(diethylamino)ethyl]-2-propoxyquinoline-4-carboxamide] | 46.7 ± 14.7
5 | CCC(C)Oc1cc(C(=O)NCCN(CC)CC)c2ccccc2n1 (stereo not shown) [Compound 5f, 2-(butan-2-yloxy)-N-[2-(diethylamino)ethyl]quinoline-4-carboxamide] | 15.7 ± 1.1
6 | CCN(CC)CCNC(=O)c1cc(OCC2CC2)nc2ccccc12 [Compound 5g, 2-(cyclopropylmethoxy)-N-[2-(diethylamino)ethyl]quinoline-4-carboxamide] | 38.5 ± 16.8
7 | CCC(CC)Oc1cc(C(=O)NCCN(CC)CC)c2ccccc2n1 [Compound 5h, N-[2-(diethylamino)ethyl]-2-(pentan-3-yloxy)quinoline-4-carboxamide] | 9.5 ± 1.1
8 | CCN(CC)CCNC(=O)c1cc(OC2CCCC2)nc2ccccc12 [Compound 5i, 2-(cyclopentyloxy)-N-[2-(diethylamino)ethyl]quinoline-4-carboxamide] | 11.7 ± 1.2
9 | CCOCCOc1cc(C(=O)NCCN(CC)CC)c2ccccc2n1 [Compound 5j, N-[2-(diethylamino)ethyl]-2-(2-ethoxyethoxy)quinoline-4-carboxamide] | 144 ± 40.5
10 | CCN(CC)CCNC(=O)c1cc(OCc2ccccc2)nc2ccccc12 [Compound 5k, 2-(benzyloxy)-N-[2-(diethylamino)ethyl]quinoline-4-carboxamide] | 13.5 ± 2.9
11 | CCN(CC)CCNC(=O)c1cc(-c2ccn[nH]2)nc2ccccc12 [Compound 6a, N-[2-(diethylamino)ethyl]-2-(1H-pyrazol-5-yl)quinoline-4-carboxamide] | 132 ± 53.3
12 | CCN(CC)CCNC(=O)c1cc(-c2cnn(C)c2)nc2ccccc12 [Compound 6b, N-[2-(diethylamino)ethyl]-2-(1-methyl-1H-pyrazol-4-yl)quinoline-4-carboxamide] | 251 ± 28.3
13 | CCN(CC)CCNC(=O)c1cc(-c2ccnn2C)nc2ccccc12 [Compound 6c, N-[2-(diethylamino)ethyl]-2-(1-methyl-1H-pyrazol-5-yl)quinoline-4-carboxamide] | 133 ± 28.7
14 | CCN(CC)CCNC(=O)c1cc(-c2c(C)noc2C)nc2ccccc12 [Compound 6h, N-[2-(diethylamino)ethyl]-2-(3,5-dimethyl-1,2-oxazol-4-yl)quinoline-4-carboxamide] | 129 ± 67.2
15 | CCN(CC)CCNC(=O)c1cc(-c2ccncc2)nc2ccccc12 [Compound 6i, N-[2-(diethylamino)ethyl]-2-(pyridin-4-yl)quinoline-4-carboxamide] | 174 ± 55.6
16 | CCN(CC)CCNC(=O)c1cc(-c2ccccc2OC)nc2ccccc12 [Compound 6k, N-[2-(diethylamino)ethyl]-2-(2-methoxyphenyl)quinoline-4-carboxamide] | 75.9 ± 6.4
17 | CCN(CC)CCNC(=O)c1cc(-c2ccc(COC)cc2)nc2ccccc12 [Compound 6n, N-[2-(diethylamino)ethyl]-2-[4-(methoxymethyl)phenyl]quinoline-4-carboxamide] | 46.6 ± 2.4
18 | CCN(CC)CCNC(=O)c1cc(-c2ccc(CN3CCOCC3)cc2)nc2ccccc12 [Compound 6o, N-[2-(diethylamino)ethyl]-2-{4-[(morpholin-4-yl)methyl]phenyl}quinoline-4-carboxamide] | 79.2 ± 8
19 | CCN(CC)CCNC(=O)c1cc(-c2cnc(N(C)C)nc2)nc2ccccc12 [Compound 6p, N-[2-(diethylamino)ethyl]-2-[2-(dimethylamino)pyrimidin-5-yl]quinoline-4-carboxamide] | 74.2 ± 7

Row | SMILES | CC50 [µM]
20 | CCN(CC)CCNC(=O)c1cc(-c2cnc(OC)nc2)nc2ccccc12 [Compound 6q, N-[2-(diethylamino)ethyl]-2-(2-methoxypyrimidin-5-yl)quinoline-4-carboxamide] | 174 ± 20.3
21 | CCN(CC)CCNC(=O)c1cc(-c2ccc3c(c2)OCCO3)nc2ccccc12 [Compound 6t, N-[2-(diethylamino)ethyl]-2-(2,3-dihydro-1,4-benzodioxin-6-yl)quinoline-4-carboxamide] | 49.9 ± 13.8
22 | CCN(CC)CCNC(=O)c1cc(-c2ccc(-c3ccccc3)cc2)nc2ccccc12 [Compound 6u, 2-{[1,1′-biphenyl]-4-yl}-N-[2-(diethylamino)ethyl]quinoline-4-carboxamide] | 9.8 ± 0.5
23 | CC(C)Oc1cc(C(=O)NCCN(C)C)c2ccccc2n1 [Compound 8a, N-[2-(dimethylamino)ethyl]-2-(propan-2-yloxy)quinoline-4-carboxamide] | 38.5 ± 1.5
24 | CC(C)Oc1cc(C(=O)NCCN)c2ccccc2n1 [Compound 8b, N-(2-aminoethyl)-2-(propan-2-yloxy)quinoline-4-carboxamide] | 149 ± 15.3
25 | CC(C)Oc1cc(C(=O)NCCCN(C)C)c2ccccc2n1 [Compound 8c, N-[3-(dimethylamino)propyl]-2-(propan-2-yloxy)quinoline-4-carboxamide] | 122 ± 39.2
26 | CC(C)Oc1cc(C(=O)NCCN2CCOCC2)c2ccccc2n1 [Compound 8d, N-[2-(morpholin-4-yl)ethyl]-2-(propan-2-yloxy)quinoline-4-carboxamide] | > 250
27 | CC(C)Oc1cc(C(=O)NCCN2CCCC2)c2ccccc2n1 [Compound 8e, 2-(propan-2-yloxy)-N-[2-(pyrrolidin-1-yl)ethyl]quinoline-4-carboxamide] | 36.9 ± 20.1
28 | CC(C)Oc1cc(C(=O)NCCN2CCN(C)CC2)c2ccccc2n1 [Compound 8f, N-[2-(4-methylpiperazin-1-yl)ethyl]-2-(propan-2-yloxy)quinoline-4-carboxamide] | 88.8 ± 21.5
29 | CC(C)Oc1cc(C(=O)NC2CCN(C)CC2)c2ccccc2n1 [Compound 8g, N-(1-methylpiperidin-4-yl)-2-(propan-2-yloxy)quinoline-4-carboxamide] | 101 ± 8.8
30 | CCN(CC)CCCNC(=O)c1cc(-c2ccccc2)nc2ccccc12 [Compound 10b, N-[3-(diethylamino)propyl]-2-phenylquinoline-4-carboxamide] | 45.4 ± 14
31 | NNC(=O)c1cc(-c2ccccc2)nc2ccccc12 [Compound 10d, 2-phenylquinoline-4-carbohydrazide] | > 300
32 | N=C(N)NC(=O)c1cc(-c2ccccc2)nc2ccccc12 [Compound 10e, N-carbamimidoyl-2-phenylquinoline-4-carboxamide] | > 250
33 | CN(C)c1ccc(NC(=O)c2cc(-c3ccccc3)nc3ccccc23)cc1 [Compound 10f, N-[4-(dimethylamino)phenyl]-2-phenylquinoline-4-carboxamide] | > 350
34 | O=C(NCCN1CCCC1)c1cc(-c2ccccc2)nc2ccccc12 [Compound 10g, 2-phenyl-N-[2-(pyrrolidin-1-yl)ethyl]quinoline-4-carboxamide] | 46.7 ± 8.3
35 | CN(C)CCCNC(=O)c1cc(-c2ccccc2)nc2ccccc12 [Compound 10h, N-[3-(dimethylamino)propyl]-2-phenylquinoline-4-carboxamide] | 44.9 ± 17.7
36 | CN(C)CCCNC(=O)c1cc(-c2cccs2)nc2ccccc12 [Compound 12b, N-[3-(dimethylamino)propyl]-2-(thiophen-2-yl)quinoline-4-carboxamide] | 40.5 ± 14
37 | O=C(NCCCn1ccnc1)c1cc(-c2cccs2)nc2ccccc12 [Compound 12d, N-[3-(1H-imidazol-1-yl)propyl]-2-(thiophen-2-yl)quinoline-4-carboxamide] | 55.7 ± 3.5

same assay, conditions: Table 6; RD cells

Row | SMILES | CC50 [µM]
38 | CN(C)CCNC(=O)c1cc(-c2ccccc2)nc2ccc(Cl)cc12 [Compound 15a, 6-chloro-N-[2-(dimethylamino)ethyl]-2-phenylquinoline-4-carboxamide] | 14.3 ± 0.8
39 | CCN(CC)CCNC(=O)c1cc(-c2ccccc2)nc2ccc(Cl)cc12 [Compound 15b, 6-chloro-N-[2-(diethylamino)ethyl]-2-phenylquinoline-4-carboxamide] | 13.5 ± 8.1
40 | COc1ccc2nc(-c3ccccc3)cc(C(=O)NCCN(C)C)c2c1 [Compound 15c, N-[2-(dimethylamino)ethyl]-6-methoxy-2-phenylquinoline-4-carboxamide] | 31.8 ± 1.3
41 | CCN(CC)CCNC(=O)c1cc(-c2ccccc2)nc2ccc(OC)cc12 [Compound 15d, N-[2-(diethylamino)ethyl]-6-methoxy-2-phenylquinoline-4-carboxamide] | 27.5 ± 7.3
42 | CN(C)CCNC(=O)c1cc(-c2ccccc2)nc2ccc(F)cc12 [Compound 19a, N-[2-(dimethylamino)ethyl]-6-fluoro-2-phenylquinoline-4-carboxamide] | 38.8 ± 19
43 | CCN(CC)CCNC(=O)c1cc(-c2ccccc2)nc2ccc(F)cc12 [Compound 19b, N-[2-(diethylamino)ethyl]-6-fluoro-2-phenylquinoline-4-carboxamide] | 24.9 ± 1.5

test system: EV-D68 US/KY/14-18953 virus; test: CPE assay, EV-D68 US/KY/14-18953 in RD cells; format: cell-based, Enterovirus D68 (EV-D68); details: EV-D68 US/KY/14-18953, RD cells

Row | SMILES | SI = selectivity index (CC50/EC50)
44 | CCN(CC)CCNC(=O)c1cc(OC)nc2ccccc12 [Compound 5a, N-[2-(diethylamino)ethyl]-2-methoxyquinoline-4-carboxamide] | >4.8
45 | CC(C)Oc1cc(C(=O)NCCN2CCOCC2)c2ccccc2n1 [Compound 8d, N-[2-(morpholin-4-yl)ethyl]-2-(propan-2-yloxy)quinoline-4-carboxamide] | >14.3
46 | NNC(=O)c1cc(-c2ccccc2)nc2ccccc12 [Compound 10d, 2-phenylquinoline-4-carbohydrazide] | >3
47 | N=C(N)NC(=O)c1cc(-c2ccccc2)nc2ccccc12 [Compound 10e, N-carbamimidoyl-2-phenylquinoline-4-carboxamide] | >7.2
48 | CN(C)c1ccc(NC(=O)c2cc(-c3ccccc3)nc3ccccc23)cc1 [Compound 10f, N-[4-(dimethylamino)phenyl]-2-phenylquinoline-4-carboxamide] | >3.5

same assay, conditions: EV-D68 US/KY/14-18953, RD cells, CPE assay; read-out: EC50

Row | SMILES | EC50 [µM]
49 | NCCNC(=O)c1cc(-c2cccs2)nc2ccccc12 [Compound 6bl, N-(2-aminoethyl)-2-(thiophen-2-yl)quinoline-4-carboxamide] | 0.4
50 | CN(C)CCNC(=O)c1cc(-c2ccco2)nc2ccccc12 [Compound 6bo, N-[2-(dimethylamino)ethyl]-2-(furan-2-yl)quinoline-4-carboxamide] | 1.1

same assay, conditions: Enterovirus D, EVD68, RD, EV-D68 US/KY/14-18953, RD cells, CPE assay

Row | SMILES | EC50 [µM]
51 | CN(C)CCNC(=O)c1cc(-c2ccco2)nc2ccccc12 [Compound 6bo, N-[2-(dimethylamino)ethyl]-2-(furan-2-yl)quinoline-4-carboxamide] | < 1

same assay, conditions: Enterovirus D, EVD68, RD, EV-D68 US/KY/14-18953, RD cells, CPE assay; read-out: EC50

Row | SMILES | EC50 [µM]
52 | CNCCNC(=O)c1cc(-c2ccccc2)nc2ccccc12 [Compound 6af, N-[2-(methylamino)ethyl]-2-phenylquinoline-4-carboxamide] | 0.9

— patent publication US20210244721A1, “SMALL MOLECULE ENTEROVIRUS INHIBITORS AND USES THEREOF” (priority 2020, published 2021)
